Results taken from ChEMBL document CHEMBL1201862, “PubChem BioAssay data set” (2004).
Structures can show the parent of a compound that is named as a salt.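 Five concentrations, 48 hours, 96-well plates. GI50 = concentration required for 50% inhibition of growth.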 Active and inactive are the calls of the source. Cut-off read from the data, not from the text of the source: active = GI50 up to about 1.1 µM and inactive = higher.

Legend:
Assay in all cases: growth of human tumour cells (NCI), 48 h
[1] = tested on: 786-0
[2] = tested on: CAKI-1
[3] = tested on: HCT-116
[4] = tested on: HL-60
[5] = tested on: IGROV-1
[6] = tested on: LOX IMVI
[7] = tested on: NCI-H23
[8] = tested on: NCI-H460
[9] = tested on: NCI/ADR-RES
[10] = tested on: OVCAR-4
[11] = tested on: RPMI-8226
[12] = tested on: RXF 393
[13] = tested on: SF-268
[14] = tested on: SK-MEL-28
[15] = tested on: SK-MEL-2
[16] = tested on: SNB-19
[17] = tested on: SNB-75
[18] = tested on: SR
[19] = tested on: HCC 2998
[20] = tested on: OVCAR-3

| Structure (SMILES) | GI50 [1] | GI50 [2] | GI50 [3] | GI50 [4] | GI50 [5] | GI50 [6] | GI50 [7] | GI50 [8] | GI50 [9] | GI50 [10] | GI50 [11] | GI50 [12] | GI50 [13] | GI50 [14] | GI50 [15] | GI50 [16] | GI50 [17] | GI50 [18] | GI50 [19] | GI50 [20] |
| --- | --- | --- | --- | --- | --- | --- | --- | --- | --- | --- | --- | --- | --- | --- | --- | --- | --- | --- | --- | --- |
| CC(=O)OC1CC[C@@]2(C)C(=CC[C@@H]3[C@@H]2CC[C@]2(C)C(OC(C)=O)[C@H](n4ccnc4)C[C@@H]32)C1 (some centres not stated) | 30.4 µM (inactive) | 49.1 µM (inactive) | 14.9 µM (inactive) | 8.91 µM (inactive) | 34.4 µM (inactive) | 18.7 µM (inactive) | 37.5 µM (inactive) | 17.4 µM (inactive) | 25.8 µM (inactive) | 20.9 µM (inactive) | 17.3 µM (inactive) | 30.2 µM (inactive) | 41.5 µM (inactive) | 17.7 µM (inactive) | 16.8 µM (inactive) | 62.8 µM (inactive) | 54.7 µM (inactive) | 16.1 µM (inactive) |  |  |
| CCCSc1cc(Cl)c(C)cc1S(=O)(=O)n1ccnc1OCCCN(C)C | > 100 µM (inactive) | > 100 µM (inactive) | > 100 µM (inactive) |  | > 100 µM (inactive) | > 100 µM (inactive) | > 100 µM (inactive) | > 100 µM (inactive) | > 100 µM (inactive) | > 100 µM (inactive) |  | > 100 µM (inactive) | > 100 µM (inactive) | > 100 µM (inactive) | > 100 µM (inactive) | > 100 µM (inactive) |  | > 100 µM (inactive) | > 100 µM (inactive) | > 100 µM (inactive) |
| CO/C(=C/C(=O)C(Cl)(Cl)Cl)CC/C(=C\C(=O)C(Cl)(Cl)Cl)OC | 22.3 µM (inactive) | 24.9 µM (inactive) | 18.8 µM (inactive) | 26.4 µM (inactive) | 16.3 µM (inactive) | 19.6 µM (inactive) | 22.4 µM (inactive) | 29.1 µM (inactive) | 29.5 µM (inactive) | 19.1 µM (inactive) | 22.3 µM (inactive) | 17.5 µM (inactive) | 26.1 µM (inactive) | 30.1 µM (inactive) | 32.4 µM (inactive) | 45.8 µM (inactive) | 40.6 µM (inactive) | 18.6 µM (inactive) |  | 26.8 µM (inactive) |
| CC(=O)C1(Cc2cccc3ccccc23)S(=O)(=O)OCCOS1(=O)=O | 23.5 µM (inactive) | 15.9 µM (inactive) | 19.6 µM (inactive) | 15.2 µM (inactive) | 4.69 µM (inactive) | 12.1 µM (inactive) | 22.9 µM (inactive) | 17.3 µM (inactive) | 21.8 µM (inactive) | 21.7 µM (inactive) | 19.5 µM (inactive) | 12.7 µM (inactive) | 19.9 µM (inactive) | 19.3 µM (inactive) |  | 18.4 µM (inactive) | 35.4 µM (inactive) | 18.3 µM (inactive) | 17.3 µM (inactive) | 19.7 µM (inactive) |
| COC(=O)C[C@H](COCc1ccccc1)NC(=O)C[C@H](COCc1ccccc1)NC(=O)C[C@H](COCc1ccccc1)NC(=O)OC(C)(C)C | 18 µM (inactive) | > 100 µM (inactive) | 14.5 µM (inactive) | > 100 µM (inactive) | > 100 µM (inactive) | 58.7 µM (inactive) | > 100 µM (inactive) |  | > 100 µM (inactive) | 3.97 µM (inactive) | > 100 µM (inactive) | 20.9 µM (inactive) | 41.5 µM (inactive) | 73.1 µM (inactive) | > 100 µM (inactive) | > 100 µM (inactive) | 13.1 µM (inactive) | 35.3 µM (inactive) |  | > 100 µM (inactive) |
| CCN(CC)CCOC(NC(C)=O)(c1ccccc1)c1ccccc1 | > 100 µM (inactive) |  | > 100 µM (inactive) | > 100 µM (inactive) | > 100 µM (inactive) |  | > 100 µM (inactive) | > 100 µM (inactive) | > 100 µM (inactive) | > 100 µM (inactive) | > 100 µM (inactive) | > 100 µM (inactive) | > 100 µM (inactive) | > 100 µM (inactive) |  | > 100 µM (inactive) | > 100 µM (inactive) | > 100 µM (inactive) | > 100 µM (inactive) |  |
| COC(=O)c1c2c(cc3c1CC1(C3)Cc3cc4c(c(C(=O)OC)c3C1)CCC4)CCC2 | > 100 µM (inactive) |  | > 100 µM (inactive) | 22.1 µM (inactive) | > 100 µM (inactive) | > 100 µM (inactive) | > 100 µM (inactive) |  | > 100 µM (inactive) | 86.9 µM (inactive) | > 100 µM (inactive) | > 100 µM (inactive) |  |  | > 100 µM (inactive) |  |  | 30.7 µM (inactive) | > 100 µM (inactive) | > 100 µM (inactive) |
| Nc1nc(Cl)c(N)c(NC23CC4CC(CC(C4)C2)C3)n1 | 1.67 µM (inactive) | 1.93 µM (inactive) | 1.58 µM (inactive) |  | 3.85 µM (inactive) | 3.87 µM (inactive) | 2.23 µM (inactive) | 3.07 µM (inactive) | 2.43 µM (inactive) | 1.85 µM (inactive) | 2.25 µM (inactive) | 1.61 µM (inactive) | 2.57 µM (inactive) | 1.84 µM (inactive) | 0.147 µM (active) | 1.63 µM (inactive) | 2.1 µM (inactive) | 2.56 µM (inactive) | 2.25 µM (inactive) | 1.64 µM (inactive) |
| C/C(=N\Nc1nc2ccccc2[nH]1)c1ccc2ccccc2n1 | 1.9 µM (inactive) | 0.339 µM (active) | 1.95 µM (inactive) | 1.8 µM (inactive) | 0.129 µM (active) | 2.11 µM (inactive) | 3.89 µM (inactive) | 2.25 µM (inactive) | 1.85 µM (inactive) | 1.85 µM (inactive) | 0.897 µM (active) | 2.73 µM (inactive) | 1.97 µM (inactive) | 3.79 µM (inactive) | 1.67 µM (inactive) | 2.75 µM (inactive) | 2.19 µM (inactive) | 0.08 µM (active) |  | 0.592 µM (active) |
| NC1=NCC(CN2CCCCC2)O1 (configuration not stated) | > 100 µM (inactive) | > 100 µM (inactive) | > 100 µM (inactive) | > 100 µM (inactive) | > 100 µM (inactive) | > 100 µM (inactive) |  | > 100 µM (inactive) | > 100 µM (inactive) |  | > 100 µM (inactive) | > 100 µM (inactive) | > 100 µM (inactive) | > 100 µM (inactive) |  | > 100 µM (inactive) | > 100 µM (inactive) | > 100 µM (inactive) |  | > 100 µM (inactive) |
| COc1ccc(/C=C2\Sc3nnc(CNc4ccc(Cl)cc4)n3N=C2c2cc(F)c(Cl)cc2Cl)cc1OC | 24.5 µM (inactive) | 23.6 µM (inactive) | 14.8 µM (inactive) | 45.7 µM (inactive) | > 100 µM (inactive) | 29.3 µM (inactive) | 28.1 µM (inactive) | 53.6 µM (inactive) | 17.9 µM (inactive) | 22.5 µM (inactive) | 7.57 µM (inactive) | 15.8 µM (inactive) | 20.6 µM (inactive) | > 100 µM (inactive) | > 100 µM (inactive) |  |  | 21 µM (inactive) | 31 µM (inactive) | 48.1 µM (inactive) |
| CC1(C)C=Cc2c(cc3oc4ccc5c(c4c(=O)c3c2O)C=CC(C)(C)O5)O1 | > 100 µM (inactive) | > 100 µM (inactive) | > 100 µM (inactive) |  | > 100 µM (inactive) | > 100 µM (inactive) | > 100 µM (inactive) |  | > 100 µM (inactive) | > 100 µM (inactive) | > 100 µM (inactive) | > 100 µM (inactive) | > 100 µM (inactive) | > 100 µM (inactive) | > 100 µM (inactive) | > 100 µM (inactive) |  | 75.3 µM (inactive) | > 100 µM (inactive) | > 100 µM (inactive) |
| CC(=O)NNc1nc(C)c(C(/C=C/c2ccc([N+](=O)[O-])cc2)=N/NC(N)=O)s1 | > 100 µM (inactive) | > 100 µM (inactive) | > 100 µM (inactive) |  | 44.8 µM (inactive) | > 100 µM (inactive) | > 100 µM (inactive) | > 100 µM (inactive) | > 100 µM (inactive) | > 100 µM (inactive) | > 100 µM (inactive) | > 100 µM (inactive) | > 100 µM (inactive) | > 100 µM (inactive) | > 100 µM (inactive) | > 100 µM (inactive) | > 100 µM (inactive) | > 100 µM (inactive) | > 100 µM (inactive) | > 100 µM (inactive) |
| O=C(NNC(=O)c1ccncc1)c1ccncc1 | > 100 µM (inactive) | > 100 µM (inactive) | > 100 µM (inactive) | > 100 µM (inactive) | > 100 µM (inactive) | > 100 µM (inactive) | > 100 µM (inactive) | > 100 µM (inactive) | > 100 µM (inactive) | > 100 µM (inactive) | > 100 µM (inactive) | > 100 µM (inactive) | > 100 µM (inactive) | > 100 µM (inactive) | > 100 µM (inactive) | > 100 µM (inactive) | > 100 µM (inactive) | > 100 µM (inactive) |  | > 100 µM (inactive) |
| CNNCc1ccc(C(=O)NC(C)C)cc1 [PROCARBAZINE HYDROCHLORIDE] | 254 µM (inactive) |  | > 500 µM (inactive) | > 478 µM (inactive) | > 404 µM (inactive) | > 486 µM (inactive) | > 500 µM (inactive) | > 500 µM (inactive) | > 500 µM (inactive) | > 500 µM (inactive) | 465 µM (inactive) | > 423 µM (inactive) | > 500 µM (inactive) | > 500 µM (inactive) | > 500 µM (inactive) | > 500 µM (inactive) | 435 µM (inactive) | > 375 µM (inactive) | > 398 µM (inactive) | > 472 µM (inactive) |
